The experiment concerns mouse mastocytoma cells. The format is cell-based.

The structures appear in SMILES notation.

For `CC(=O)N[C@@H](CSC(=O)[C@]1([C@@H](O)C(C)C)NC(=O)[C@H](C)[C@@H]1O)C(=O)O` [lactacystin], the “lysis of the target cells by CTLs” value is reported as “significantly decreased lysis”.

The values are drawn from patent US7097965B2 (priority 1996, dated 2006).
